Data set [1] has as its target T1, Serine/threonine-protein kinase PLK4 (Homo sapiens, UniProt O00444).
T1 sequence (O00444 whole entry): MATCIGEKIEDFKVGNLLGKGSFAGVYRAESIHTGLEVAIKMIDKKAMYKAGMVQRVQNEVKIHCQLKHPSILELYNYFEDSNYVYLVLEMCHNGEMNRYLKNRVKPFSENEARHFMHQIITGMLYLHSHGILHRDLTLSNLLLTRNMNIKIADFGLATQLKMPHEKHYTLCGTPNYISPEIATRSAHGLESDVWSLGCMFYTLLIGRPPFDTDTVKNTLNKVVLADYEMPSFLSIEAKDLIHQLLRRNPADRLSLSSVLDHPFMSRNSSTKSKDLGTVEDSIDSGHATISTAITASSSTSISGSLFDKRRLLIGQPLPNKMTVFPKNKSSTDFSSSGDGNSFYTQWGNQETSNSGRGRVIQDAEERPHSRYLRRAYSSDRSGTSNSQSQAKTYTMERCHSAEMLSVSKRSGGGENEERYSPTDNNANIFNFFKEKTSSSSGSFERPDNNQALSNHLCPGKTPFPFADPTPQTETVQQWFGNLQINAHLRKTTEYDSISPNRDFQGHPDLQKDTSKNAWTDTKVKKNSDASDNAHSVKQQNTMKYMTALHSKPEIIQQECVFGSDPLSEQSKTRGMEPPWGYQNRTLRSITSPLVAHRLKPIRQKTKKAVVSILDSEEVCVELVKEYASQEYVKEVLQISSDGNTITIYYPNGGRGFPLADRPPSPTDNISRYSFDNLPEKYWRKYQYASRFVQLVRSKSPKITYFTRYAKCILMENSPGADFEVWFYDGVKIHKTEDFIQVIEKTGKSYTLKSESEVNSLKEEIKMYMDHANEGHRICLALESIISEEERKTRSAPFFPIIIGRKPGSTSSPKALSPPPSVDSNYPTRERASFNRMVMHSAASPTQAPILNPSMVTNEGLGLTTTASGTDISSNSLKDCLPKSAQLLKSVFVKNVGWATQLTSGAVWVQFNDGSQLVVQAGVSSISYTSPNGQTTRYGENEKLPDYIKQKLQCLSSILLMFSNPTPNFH
As to the kind of experiment: Inhibition of human PLK4.

In data set [2] the target is T1, Serine/threonine-protein kinase PLK4. As to the kind of experiment: Inhibition of N-terminal GST-tagged human PLK4 (1 to 391 amino acids) expressed in Escherichia coli using TMB as substrate after 30 mins by indirect ELISA assay.
The subject of the next data set is MCF7. As to the kind of experiment: Antiproliferative activity against human MCF7 cells assessed as growth inhibition after 5 days by SRB assay. It counts as functional. The settings on record: MCF7, 120 h. For orientation: Sulforhodamine B stains cellular protein and so reports cell mass.
A further data set has as its system HCC1954. Put plainly: Antiproliferative activity against human HCC1954 cells assessed as growth inhibition after 5 days by SRB assay. Type of data set: functional. As to conditions: HCC1954, 120 h.
For the next data set, the system named is SK-BR-3. Put plainly: Antiproliferative activity against human SKBR3 cells assessed as growth inhibition after 5 days by SRB assay. Type of data set: functional. As to conditions: SK-BR-3, 120 h.
Data set [3] addresses Serine/threonine-protein kinase PLK2 (Homo sapiens, UniProt Q9NYY3). Put plainly: Inhibition of PLK2 (unknown origin) by FRET-based homogeneous assay.
Data set [4] deals with MDA-MB-468. As to the kind of experiment: Antiproliferative activity against human MDA-MB-468 cells assessed as growth inhibition after 5 days by SRB assay. It counts as functional. As to conditions: MDA-MB-468, 120 h.
The target in data set [5] is Serine/threonine-protein kinase PLK1 (Homo sapiens, UniProt P53350). Put plainly: Inhibition of PLK1 (unknown origin) by FRET-based homogeneous assay.
Chain of Serine/threonine-protein kinase PLK1 (P53350 whole entry): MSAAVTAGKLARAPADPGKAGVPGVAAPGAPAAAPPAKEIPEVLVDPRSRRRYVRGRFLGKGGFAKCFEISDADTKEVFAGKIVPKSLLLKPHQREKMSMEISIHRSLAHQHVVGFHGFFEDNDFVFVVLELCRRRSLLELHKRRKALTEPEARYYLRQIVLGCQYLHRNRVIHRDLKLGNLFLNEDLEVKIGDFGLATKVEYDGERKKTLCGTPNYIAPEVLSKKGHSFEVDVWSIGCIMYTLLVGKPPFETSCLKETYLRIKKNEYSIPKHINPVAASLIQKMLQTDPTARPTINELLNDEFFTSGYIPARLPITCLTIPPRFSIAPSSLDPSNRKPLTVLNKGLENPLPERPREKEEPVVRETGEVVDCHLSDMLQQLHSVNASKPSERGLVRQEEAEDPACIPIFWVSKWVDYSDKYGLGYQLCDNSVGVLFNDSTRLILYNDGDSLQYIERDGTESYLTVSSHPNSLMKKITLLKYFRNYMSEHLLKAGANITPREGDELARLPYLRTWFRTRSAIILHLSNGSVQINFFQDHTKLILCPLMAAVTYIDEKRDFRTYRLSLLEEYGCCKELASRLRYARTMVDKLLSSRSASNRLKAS
For data set [6], the target named is Serine/threonine-protein kinase PLK3 (Homo sapiens, UniProt Q9H4B4). As to the kind of experiment: Inhibition of PLK3 (unknown origin) by FRET-based homogeneous assay.
Chain of Serine/threonine-protein kinase PLK3 (Q9H4B4 whole entry): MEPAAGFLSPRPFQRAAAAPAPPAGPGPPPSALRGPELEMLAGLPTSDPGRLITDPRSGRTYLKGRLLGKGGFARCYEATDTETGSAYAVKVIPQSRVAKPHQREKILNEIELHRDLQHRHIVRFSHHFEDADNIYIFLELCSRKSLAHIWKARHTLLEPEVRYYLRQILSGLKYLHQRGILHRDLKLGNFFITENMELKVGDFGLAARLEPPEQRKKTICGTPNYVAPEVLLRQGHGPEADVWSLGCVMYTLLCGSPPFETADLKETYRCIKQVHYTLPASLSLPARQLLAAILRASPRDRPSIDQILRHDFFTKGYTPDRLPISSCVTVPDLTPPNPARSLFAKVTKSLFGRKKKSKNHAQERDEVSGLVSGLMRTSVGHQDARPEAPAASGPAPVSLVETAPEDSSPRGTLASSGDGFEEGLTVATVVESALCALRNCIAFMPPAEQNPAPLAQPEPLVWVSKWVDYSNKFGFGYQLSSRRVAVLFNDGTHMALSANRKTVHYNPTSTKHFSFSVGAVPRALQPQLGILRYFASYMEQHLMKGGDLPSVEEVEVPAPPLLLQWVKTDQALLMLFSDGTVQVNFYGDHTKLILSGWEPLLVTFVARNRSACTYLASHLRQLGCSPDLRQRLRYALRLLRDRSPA
In the next data set the test system is MDA-MB-231. As to the kind of experiment: Antiproliferative activity against human MDA-MB-231 cells assessed as growth inhibition after 5 days by SRB assay. As to conditions: MDA-MB-231, 120 h. Type of data set: functional.
Data set [7] can be described thus: Permeability of the compound at pH 7.4 by PAMPA. It counts as ADME. The settings on record: read-out: permeability. In general terms: PAMPA measures passive passage across an artificial lipid membrane.
The target in another data set is Cytochrome P450 2D6 (Homo sapiens, UniProt P10635). Put plainly: Inhibition of CYP2D6 (unknown origin) using AMMC as substrate after 30 mins by fluorescence assay. Type of data set: ADME.
Chain of Cytochrome P450 2D6 (P10635 whole entry): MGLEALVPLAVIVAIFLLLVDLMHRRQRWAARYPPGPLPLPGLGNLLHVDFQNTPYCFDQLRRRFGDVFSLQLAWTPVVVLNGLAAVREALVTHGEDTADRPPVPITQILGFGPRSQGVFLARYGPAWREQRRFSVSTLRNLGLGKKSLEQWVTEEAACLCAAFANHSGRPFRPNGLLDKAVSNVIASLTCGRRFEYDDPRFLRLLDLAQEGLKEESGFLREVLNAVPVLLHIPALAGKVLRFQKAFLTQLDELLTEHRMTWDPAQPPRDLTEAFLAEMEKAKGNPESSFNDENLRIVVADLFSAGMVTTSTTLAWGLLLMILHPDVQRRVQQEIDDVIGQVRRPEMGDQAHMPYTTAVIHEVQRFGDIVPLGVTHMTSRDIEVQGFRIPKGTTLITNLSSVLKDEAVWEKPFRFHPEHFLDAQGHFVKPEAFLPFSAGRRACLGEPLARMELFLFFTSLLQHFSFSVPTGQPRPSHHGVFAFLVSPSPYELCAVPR
The target of another data set is Cytochrome P450 3A4 (Homo sapiens, UniProt P08684). As to the kind of experiment: Inhibition of CYP3A4 (unknown origin) after 10 mins by fluorescence assay. Type of data set: ADME.
Chain of Cytochrome P450 3A4 (P08684 whole entry): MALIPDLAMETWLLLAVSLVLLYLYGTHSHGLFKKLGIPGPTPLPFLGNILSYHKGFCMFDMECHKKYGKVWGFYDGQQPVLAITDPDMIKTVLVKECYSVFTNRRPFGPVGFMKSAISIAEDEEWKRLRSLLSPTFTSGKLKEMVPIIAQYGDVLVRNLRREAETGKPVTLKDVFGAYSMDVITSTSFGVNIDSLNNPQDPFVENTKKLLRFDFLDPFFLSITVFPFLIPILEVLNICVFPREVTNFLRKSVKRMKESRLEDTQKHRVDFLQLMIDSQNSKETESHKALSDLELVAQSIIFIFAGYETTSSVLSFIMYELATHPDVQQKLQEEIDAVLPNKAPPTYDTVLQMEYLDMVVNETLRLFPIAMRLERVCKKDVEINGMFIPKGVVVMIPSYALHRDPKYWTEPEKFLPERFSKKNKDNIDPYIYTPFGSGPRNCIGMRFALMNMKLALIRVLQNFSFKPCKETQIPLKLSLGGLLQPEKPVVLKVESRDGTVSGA
The next data set deals with T2, Cytochrome P450 1A2 (Homo sapiens, UniProt P05177).
T2 sequence (P05177 whole entry): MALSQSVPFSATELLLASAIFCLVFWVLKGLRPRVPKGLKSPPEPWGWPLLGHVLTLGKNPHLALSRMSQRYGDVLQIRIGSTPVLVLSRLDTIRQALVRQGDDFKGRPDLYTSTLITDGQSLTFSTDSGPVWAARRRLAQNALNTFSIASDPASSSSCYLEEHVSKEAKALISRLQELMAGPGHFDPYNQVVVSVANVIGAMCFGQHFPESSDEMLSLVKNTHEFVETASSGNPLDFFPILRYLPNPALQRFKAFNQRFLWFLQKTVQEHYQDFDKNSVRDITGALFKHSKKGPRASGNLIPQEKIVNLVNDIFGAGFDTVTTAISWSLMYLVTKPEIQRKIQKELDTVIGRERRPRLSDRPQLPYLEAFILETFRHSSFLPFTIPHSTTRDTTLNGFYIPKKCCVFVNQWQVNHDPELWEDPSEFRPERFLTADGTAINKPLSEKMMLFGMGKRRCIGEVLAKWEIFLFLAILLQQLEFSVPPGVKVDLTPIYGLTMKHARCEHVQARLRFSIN
As to the kind of experiment: Inhibition of CYP1A2 (unknown origin) using CEC as substrate after 15 mins by fluorescence assay. Type of data set: ADME.

The target in the next data set is Cytochrome P450 2C9 (Homo sapiens, UniProt P11712). As to the kind of experiment: Inhibition of CYP2C9 (unknown origin) using MFC as substrate after 45 mins by fluorescence assay. It counts as ADME.
Chain of Cytochrome P450 2C9 (P11712 whole entry): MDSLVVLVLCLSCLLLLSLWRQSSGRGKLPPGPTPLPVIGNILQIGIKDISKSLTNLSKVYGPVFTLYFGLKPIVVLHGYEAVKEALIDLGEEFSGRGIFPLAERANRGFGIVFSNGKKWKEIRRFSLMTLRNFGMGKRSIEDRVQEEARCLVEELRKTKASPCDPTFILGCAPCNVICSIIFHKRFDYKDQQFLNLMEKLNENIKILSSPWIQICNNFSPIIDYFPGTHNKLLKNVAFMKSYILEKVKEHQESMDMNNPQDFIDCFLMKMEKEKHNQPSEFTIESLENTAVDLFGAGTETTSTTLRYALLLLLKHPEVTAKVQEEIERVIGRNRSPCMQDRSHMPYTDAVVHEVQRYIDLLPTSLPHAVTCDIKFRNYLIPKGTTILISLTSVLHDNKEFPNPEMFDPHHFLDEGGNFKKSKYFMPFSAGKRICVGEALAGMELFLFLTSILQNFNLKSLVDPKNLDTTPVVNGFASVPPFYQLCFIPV
In a further data set the target is Cytochrome P450 2C19 (Homo sapiens, UniProt P33261). Put plainly: Inhibition of CYP2C19 (unknown origin) using MFC as substrate after 30 mins by fluorescence assay. Type of data set: ADME.
Chain of Cytochrome P450 2C19 (P33261 whole entry): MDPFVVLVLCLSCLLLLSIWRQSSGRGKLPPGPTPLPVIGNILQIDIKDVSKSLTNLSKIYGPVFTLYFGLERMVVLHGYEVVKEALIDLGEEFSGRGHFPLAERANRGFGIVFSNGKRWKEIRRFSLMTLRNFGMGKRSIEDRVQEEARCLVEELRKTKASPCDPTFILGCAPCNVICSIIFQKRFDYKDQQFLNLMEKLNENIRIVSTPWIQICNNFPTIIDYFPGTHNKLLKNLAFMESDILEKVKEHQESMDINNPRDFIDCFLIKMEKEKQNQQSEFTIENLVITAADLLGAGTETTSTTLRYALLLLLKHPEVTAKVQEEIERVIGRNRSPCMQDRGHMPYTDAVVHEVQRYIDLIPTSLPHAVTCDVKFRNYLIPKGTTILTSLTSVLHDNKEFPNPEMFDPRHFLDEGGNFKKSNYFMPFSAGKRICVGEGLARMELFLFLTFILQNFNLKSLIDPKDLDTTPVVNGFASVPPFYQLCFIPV
Data set [8] concerns MDA-MB-468. As to the kind of experiment: Cell cycle arrest in human MDA-MB-468 cells assessed as accumulation of 8N peaks at 0.5 uM after 2 days by FACS analysis. Type of data set: functional. (In general: In flow cytometry, cells or beads pass a laser one at a time.)
Data set [9] concerns MDA-MB-468. Put plainly: Cell cycle arrest in human MDA-MB-468 cells assessed as accumulation of 16N peaks at 0.5 uM after 2 days by FACS analysis. It counts as functional.
Data set [10] relates to MDA-MB-468. As to the kind of experiment: Cell cycle arrest in human MDA-MB-468 cells assessed as accumulation of 8N peaks at 1 uM after 2 days by FACS analysis. It counts as functional.
Data set [11] concerns MDA-MB-468. Put plainly: Cell cycle arrest in human MDA-MB-468 cells assessed as accumulation at G1 phase at 0.25 uM after 2 days by FACS analysis. Type of data set: functional.
For data set [12], the system named is MDA-MB-468. Put plainly: Cell cycle arrest in human MDA-MB-468 cells assessed as accumulation of 8N peaks at 0.25 uM after 2 days by FACS analysis. Type of data set: functional.
The subject of data set [13] is MDA-MB-468. Put plainly: Cell cycle arrest in human MDA-MB-468 cells assessed as accumulation at G1 phase at 1 uM after 2 days by FACS analysis. It counts as functional.
Data set [14] has as its system MDA-MB-468. Put plainly: Cell cycle arrest in human MDA-MB-468 cells assessed as accumulation of 16N peaks at 1 uM after 2 days by FACS analysis. It counts as functional.
Data set [15] relates to MDA-MB-468. As to the kind of experiment: Cell cycle arrest in human MDA-MB-468 cells assessed as accumulation at G1 phase at 0.5 uM after 2 days by FACS analysis. Type of data set: functional.
Data set [16] deals with MDA-MB-468. As to the kind of experiment: Cell cycle arrest in human MDA-MB-468 cells assessed as accumulation of 16N peaks at 0.25 uM after 2 days by FACS analysis. Type of data set: functional.

This is an account of results in ChEMBL document CHEMBL2406977, “The discovery of PLK4 inhibitors: (E)-3-((1H-Indazol-6-yl)methylene)indolin-2-ones as novel antiproliferative agents” (J Med Chem, 2013).

As usually defined, the Ki is a measure of affinity in units of concentration, obtained from inhibition or displacement. What is called IC50 is the concentration needed to halve the response being measured. Higher therefore signals weaker potency in that assay. What is called GI50 is the concentration giving 50% growth inhibition.

Chain of Serine/threonine-protein kinase PLK2 (Q9NYY3 whole entry): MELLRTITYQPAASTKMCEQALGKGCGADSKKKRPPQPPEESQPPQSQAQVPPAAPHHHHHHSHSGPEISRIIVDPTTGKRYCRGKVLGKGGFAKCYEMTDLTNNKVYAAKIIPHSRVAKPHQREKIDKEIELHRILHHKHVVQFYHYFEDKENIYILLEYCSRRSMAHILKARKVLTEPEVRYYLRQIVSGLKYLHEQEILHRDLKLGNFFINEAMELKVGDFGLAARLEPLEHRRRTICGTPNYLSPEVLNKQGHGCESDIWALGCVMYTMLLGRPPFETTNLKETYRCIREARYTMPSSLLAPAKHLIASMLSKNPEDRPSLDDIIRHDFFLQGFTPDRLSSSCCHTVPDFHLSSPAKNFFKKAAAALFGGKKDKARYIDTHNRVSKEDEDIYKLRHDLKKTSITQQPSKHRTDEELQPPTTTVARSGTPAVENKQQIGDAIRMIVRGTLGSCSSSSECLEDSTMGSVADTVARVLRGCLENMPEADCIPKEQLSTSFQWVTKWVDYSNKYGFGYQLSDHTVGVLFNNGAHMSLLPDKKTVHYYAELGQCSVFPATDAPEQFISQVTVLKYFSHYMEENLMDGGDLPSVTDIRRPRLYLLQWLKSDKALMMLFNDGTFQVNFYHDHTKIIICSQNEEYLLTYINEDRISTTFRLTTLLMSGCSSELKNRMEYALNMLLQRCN

The compound `COCCOc1ccc2cc1OCC(=O)N(C)CCCN(C)Cc1c[nH]c3ncnc(c13)N2` yielded an inhibition constant Ki in data set [1] of 25 nM.

As for `O=C1Nc2ccccc2/C1=C\c1ccc2c(/C=C/c3ccc(C(=O)O)cc3)n[nH]c2c1`, the IC50 in [2] is 0.82 nM; in [3], over 10000 nM; in data set [5], over 10000 nM; in data set [6], over 10000 nM. The GI50 in the data set with MCF7 is 6800 nM; with HCC1954 it was 2000 nM; with SK-BR-3, 16000 nM; with MDA-MB-468 [4], 800 nM; with MDA-MB-231, over 50000 nM. Also, in data set [7], the Papp is 2.1 ×10⁻⁶ cm/s.

Consider `CN(C)Cc1ccc(/C=C/c2n[nH]c3cc(/C=C4/C(=O)Nc5ccccc54)ccc23)cc1`, for which the IC50 in data set [2] is 2 nM; against Cytochrome P450 2D6, 9000 nM; on Cytochrome P450 3A4, 10000 nM; in data set [3] it was over 10000 nM; in data set [5], over 10000 nM; in data set [6] it was over 10000 nM. Moreover, the IC50 against Cytochrome P450 1A2 was over 10000 nM; against Cytochrome P450 2C9, 1300 nM; at Cytochrome P450 2C19 it was 1000 nM. Further, the 50% growth inhibitory concentration (GI50) stood at 10 nM in the data set with MCF7; 480 nM in the data set on HCC1954; 1900 nM with SK-BR-3; 10 nM with MDA-MB-468 [4]; 2 nM in the data set on MDA-MB-231. Moreover, in data set [7], the Papp was 276 ×10⁻⁶ cm/s.

`COc1cc2c(cc1F)C(c1ccccc1Cl)=Nc1c(n[nH]c1C)N2` [RG-1530] had a Ki in data set [1] of 11 nM.

On to `O=C1Nc2ccccc2/C1=C\c1ccc2c(/C=C/c3ccncc3)n[nH]c2c1`, for which the half-maximal inhibitory concentration (IC50) in data set [2] was 5.4 nM; against Cytochrome P450 2D6, over 10000 nM; against Cytochrome P450 3A4, 2700 nM; in data set [3], over 10000 nM; in [5] it was over 10000 nM; in data set [6], over 10000 nM. Moreover, the figures for the IC50 against Cytochrome P450 1A2, at Cytochrome P450 2C9 and at Cytochrome P450 2C19 were over 10000 nM, 20 nM and 130 nM, respectively. In addition, the Activity in the data set with MDA-MB-468 [8] was 34.3%; with MDA-MB-468 [9] it was 6%; in the data set with MDA-MB-468 [10] it was 32.5%; with MDA-MB-468 [11], 11.2%; with MDA-MB-468 [12], 11.85%; with MDA-MB-468 [13], 24.8%. Besides, the Activity in the data set with MDA-MB-468 [14] turned out to be 5.2%; in the data set with MDA-MB-468 [15] it was 20.8%; in the data set on MDA-MB-468 [16], 1.7%. Moreover, the GI50 is 160 nM with MCF7; 930 nM with HCC1954; 25000 nM with SK-BR-3; 310 nM in the data set on MDA-MB-468 [4]; 19000 nM in the data set with MDA-MB-231. Moreover, in data set [7], the Papp was found to be 197 ×10⁻⁶ cm/s.

As to `CN1CCN(c2ccc(/C=C/c3n[nH]c4cc(/C=C5/C(=O)Nc6ccccc65)ccc34)cn2)CC1`, the IC50 was 1.4 nM in [2]; 10000 nM against Cytochrome P450 2D6; 800 nM against Cytochrome P450 3A4; over 10000 nM in data set [3]; over 10000 nM in data set [5]; over 10000 nM in data set [6]. The IC50 is 10000 nM against Cytochrome P450 1A2, 900 nM on Cytochrome P450 2C9 and 440 nM against Cytochrome P450 2C19. Further, the GI50 in the data set on MCF7 is 20 nM; in the data set with HCC1954, 370 nM; in the data set with SK-BR-3, 1100 nM; with MDA-MB-468 [4], 20 nM; in the data set with MDA-MB-231 it was under 10 nM. Also, the Papp in [7] is 335 ×10⁻⁶ cm/s.
